# Reference: patent US20120178796A1, “SPLICE VARIANTS” (priority 2009, published 2012)
# How the values were obtained:
# Type in all cases: cell-based, human
# [1] = tested on: ARPE19 retinal epithelial cells; test: Morphological neuronal differentiation of ARPE19 cells (phase contrast micrographs); details: for morphological differentiation towards neuronal phenotype after siRNA silencing: 72 h to 96 hr after siRNA
# Experimental: (§1) Isogenic colorectal carcinoma cell lines HCT116 p53+/+ and HCT116 p53-/- were cultured in DMEM supplemented with 10% FBS. Non-cancer retinal epithelial cell line ARPE-19 was cultured in DMEM:F12 supplemented with 10% FBS. Cells used in experiments were low passage number (not >8 splits from nitrogen). Transfection of siRNA were as described (Ford et al., 2005; Ford et al., 2008). SIRT1 FL siRNA (targeting SIRT1 FL and SIRT1 ΔEx3-4) is sited within exon8; SIRT1 ΔEx8 siRNA (targeting SIRT1 ΔEx8 and SIRT1 ΔEx3-4-8) is located across the alternate exon7-exon9 splice. Sequences and locations of siRNAs are detailed in the Supplementary Table 3.
# (§2) Digital phase contrast cell images were captured on an Axiovert Cell Observer (Zeiss). Quantification of apoptosis was performed using an AnnexinV-Fluos kit (Roche) according to the manufacturer's instructions, with analysis by flow cytometry on a FACSCalibur (BD) using CellQuest software.
# Cells were treated for 48 h with 1 μM fenretinide in OPTIMEM media 24 h following siRNA transfection. Before addition of fenretinide cells were first washed with OPTIMEM to remove serum. 48 h later fenretinide was removed by washing with OPTIMEM and normal growth media with serum was added. Cells were then monitored by microscopy for a further 48 h.
# [2] = tested on: p53; test: Immunoblot of p53 protein and p53 acetylation after siRNA silencing, HCT116 cells
# Experimental: as §1
# [3] = tested on: HCT116 colorectal cancer cells; test: Apoptosis after siRNA silencing (micrographs, annexin V staining), HCT116 cells; details: single dose of siRNA, basal conditions
# Experimental: as §1, §2
# [4] = tested on: ARPE19 non-cancer epithelial cells; test: Apoptosis after siRNA silencing, ARPE19 cells
# Experimental: as §1, §2
# [5] = tested on: p53; test: Immunoblot of p53 protein and p53 acetylation after siRNA silencing or stress, ARPE19 cells; details: for p53 induction in response to DNA damaging agent: agent alone
# Experimental: as §1
# [6] = tested on: SIRT1 Δ2-9 mRNA; test: SIRT1 Δ2-9 mRNA knock-down by RT-PCR in ARPE19 and HCT116 cells
# Experimental: as §1
# Standard RT-PCR was performed on a DNA Engine Dyad (MJ Research) using a One-Step RT-PCR kit (Qiagen). Reaction endpoints were electrophoresed on agarose gels, visualised on a UV transilluminator (Appligene) and images captured with a DS34 camera (Polaroid). […] Total RNA from cell experiments was isolated using an RNeasy kit (Qiagen) and quantitated by UV spectroscopy (GeneSpecV). For qRT-PCR, reactions were run in quadruplicate on a DNA Engine Opticon (BioRad) using a QuantiTect SYBR Green RT-PCR kit (Qiagen). […]
# In order to look at the functional significance of SIRT1 Δ2-9, a siRNA was designed to the splice junction region of exon-2 and exon-9. […] These changes were also confirmed by quantitative RT-PCR (FIG. 20E). […]
Molecule,morphological differentiation towards neuronal phenotype after siRNA silencing [1],"accumulation of total p53 protein ([2]; HCT116 cells, basal conditions)",induction of apoptosis [3],p53 induction in response to DNA damaging agent [5],also measured
UAAUUCCAAGUAAUCAGUA [SIRT1 ΔEx8 siRNA],did not induce morphological differentiation,A similar effect was not observed,did not induce apoptosis,–,–
ACUUUGCUGUAACCCUGUA [SIRT1 FL siRNA],induces neuronal differentiation,approximately 10 fold,induced massive apoptosis,–,"induction of apoptosis [4]: fails to induce apoptosis; increase of p53 acetylation levels ([2]; HCT116 cells, basal conditions): more than 50 fold"
"CC1=C(/C=C/C(C)=C/C=C/C(C)=C/C(=O)Nc2ccc(O)cc2)C(C)(C)CCC1 [fenretinide, reference compound]",–,–,–,–,"neuronal differentiation induced by compound ([1]; 1 μM, 48 h, OPTIMEM): can be induced"
"O=c1[nH]cc(F)c(=O)[nH]1 [SFU, reference compound]",–,–,–,induced substantially,–
"COc1cc([C@@H]2c3cc4c(cc3[C@@H](O[C@@H]3O[C@@H]5CO[C@@H](C)O[C@H]5[C@H](O)[C@H]3O)[C@H]3COC(=O)[C@H]23)OCO4)cc(OC)c1O [Etoposide, reference compound]",–,–,–,induced substantially,–
CCUUCUGUUCGUUCUUGUG [SIRT1 Δ2-9 siRNA],–,–,–,–,"SIRT1 Δ2-9 mRNA expression [6]: almost completely abolished; p53 protein level (Western blot) ([2]; HCT116 p53+/+ cells): significantly reduced; p53 protein level (Western blot) [5]: significantly reduced; stress-induced p53 induction in siRNA treated samples ([5]; Etoposide, UV or 5FU in combination with siRNA): attenuated"
